In US4866038A, “Method of stimulating integumental melanocytes by topical application of analogs of alpha-msh” (University Patents, Inc., priority 1988, dated 1989):
Like-named read-outs stand apart in the source and are kept apart here. Non-standard residues stand in square brackets, D forms with d. Residues, ends and D or L forms follow the SMILES beside them. *: point of attachment. Phe(4-NO2) = N[C@@H](Cc1ccc([N+](=O)[O-])cc1)C(=O)O; dPhe(4-NO2) = N[C@H](Cc1ccc([N+](=O)[O-])cc1)C(=O)O; dPhg = N[C@@H](C(=O)O)c1ccccc1; Nle = CCCC[C@H](N)C(=O)O; For = O=C*

Assays:
frog (Rana pipiens) = type: cell-based
Procedure: (§1) Biological effect on in vivo and in vitro melanosome dispersion was examined using the frog (Rana pipiens) and the lizard (Anolis caroliniensis). [See Hadley et al., Science 213:1025-1027(1981)]; similar examinations were conducted with respect to the duration of its ability to stimulate melanosome dispersion in vitro using the skin bioassay as described in Shimume, Endrochrinology, 54:553-560(1954). The in vitro results are depicted in Table I.

[1] = test system: lizard (Anolis caroliniensis); type: cell-based
Procedure: as §1

| Compound | Relative Potency Frog (frog (Rana pipiens)) | Relative Potency Lizard [1] | Relative Potency Frog (frog (Rana pipiens); in vitro skin bioassay, alpha-MSH = 1.0) |
| --- | --- | --- | --- |
| CSCC[C@H](NC(C)=O)C(=O)N[C@@H](CCC(=O)O)C(=O)N[C@@H](Cc1c[nH]cn1)C(=O)N[C@H](C)C(=O)N[C@@H](CCCNC(=N)N)C(=O)N[C@@H](Cc1c[nH]c2ccccc12)C(=O)NCC(=O)N[C@@H](CCCCN)C(N)=O [Ac--[D-Ala^7]--alpha-MSH4-11 --NH2] (Ac-MEH[dA]RWGK-NH2) | 0.001 |  |  |
| CC(=O)N[C@@H](CCC(=O)O)C(=O)N[C@@H](Cc1c[nH]cn1)C(=O)N[C@H](Cc1ccccc1)C(=O)N[C@@H](CCCNC(=N)N)C(=O)N[C@@H](Cc1c[nH]c2ccccc12)C(=O)NCC(=O)N[C@@H](CCCCN)C(N)=O [Ac--[D-Phe^7]--alpha-MSH5-11 --NH2] (Ac-EH[dF]RWGK-NH2) | 0.01 |  |  |
| CCCC[C@H](NC(C)=O)C(=O)N[C@@H](CCC(=O)O)C(=O)N[C@@H](Cc1c[nH]cn1)C(=O)N[C@@H](C)C(=O)N[C@@H](CCCNC(=N)N)C(=O)N[C@@H](Cc1c[nH]c2ccccc12)C(=O)NCC(=O)N[C@@H](CCCCN)C(N)=O [Ac--[Nle^4 --Ala^7]--alpha-MSH4-11 --NH2] (Ac-[Nle]EHARWGK-NH2) | 0.02 | 0.009 |  |
| CCCC[C@H](NC(C)=O)C(=O)N[C@@H](CCC(=O)O)C(=O)N[C@@H](Cc1c[nH]cn1)C(=O)N[C@H](C)C(=O)N[C@@H](CCCNC(=N)N)C(=O)N[C@@H](Cc1c[nH]c2ccccc12)C(=O)NCC(=O)N[C@@H](CCCCN)C(N)=O [Ac--[Nle^4 --D-Ala^7]--alpha-MSH4-11 --NH2] (Ac-[Nle]EH[dA]RWGK-NH2) | 0.000080 | 0.020 |  |
| CCCC[C@H](NC(C)=O)C(=O)N[C@@H](CCC(=O)O)C(=O)N[C@@H](Cc1c[nH]cn1)C(=O)N[C@@H](Cc1ccccc1)C(=O)N[C@H](CCCNC(=N)N)C(=O)N[C@@H](Cc1c[nH]c2ccccc12)C(=O)NCC(=O)N[C@@H](CCCCN)C(N)=O [Ac--[Nle^4 --D-Arg^8]--alpha-MSH4-11 --NH2] (Ac-[Nle]EHF[dR]WGK-NH2) | 0.000016 | 0.0022 |  |
| CCCC[C@H](NC(C)=O)C(=O)N[C@@H](CCC(=O)O)C(=O)N[C@H](Cc1c[nH]cn1)C(=O)N[C@H](Cc1ccccc1)C(=O)N[C@@H](CCCNC(=N)N)C(=O)N[C@@H](Cc1c[nH]c2ccccc12)C(=O)NCC(=O)N[C@@H](CCCCN)C(N)=O [Ac--[Nle^4 --D-His^6 --D-Phe^7]--alpha-MSH4-11 --NH2] (Ac-[Nle]E[dH][dF]RWGK-NH2) | 0.0006 | 0.053 |  |
| CCCC[C@H](NC(C)=O)C(=O)N[C@@H](CCC(=O)O)C(=O)N[C@H](Cc1c[nH]cn1)C(=O)N[C@@H](Cc1ccccc1)C(=O)N[C@@H](CCCNC(=N)N)C(=O)N[C@@H](Cc1c[nH]c2ccccc12)C(=O)NCC(=O)N[C@@H](CCCCN)C(N)=O [Ac--[Nle^4 --D-His^6]--alpha-MSH4-11 --NH2] (Ac-[Nle]E[dH]FRWGK-NH2) | 0.0014 | 0.002 |  |
| CCCC[C@H](NC(C)=O)C(=O)N[C@@H](CCC(=O)O)C(=O)N[C@@H](Cc1c[nH]cn1)C(=O)N[C@H](Cc1ccccc1)C(=O)N[C@H](CCCNC(=N)N)C(=O)N[C@@H](Cc1c[nH]c2ccccc12)C(=O)NCC(=O)N[C@@H](CCCCN)C(N)=O [Ac--[Nle^4 --D-Phe^7 --D-Arg^8]--alpha-MSH4-11 --NH2] (Ac-[Nle]EH[dF][dR]WGK-NH2) | 0.00010 | 0.0022 |  |
| CCCC[C@H](NC(C)=O)C(=O)N[C@@H](CCC(=O)O)C(=O)N[C@@H](Cc1c[nH]cn1)C(=O)N[C@H](Cc1ccccc1)C(=O)N[C@@H](CCCNC(=N)N)C(=O)N[C@H](Cc1c[nH]c2ccccc12)C(N)=O [Ac--[Nle^4 --D-Phe^7 --D-Trp^9]--alpha-MSH4-9 --NH2] (Ac-[Nle]EH[dF]R[dW]-NH2) | 0.03 | 3.8 |  |
| CCCC[C@H](NC(C)=O)C(=O)N[C@@H](CCC(=O)O)C(=O)N[C@@H](Cc1c[nH]cn1)C(=O)N[C@H](Cc1ccccc1)C(=O)N[C@@H](CCCNC(=N)N)C(=O)N[C@H](Cc1c[nH]c2ccccc12)C(=O)NCC(=O)N[C@@H](CCCCN)C(N)=O [Ac--[Nle^4 --D-Phe^7 --D-Trp^9]--alpha-MSH4-11 --NH2] (Ac-[Nle]EH[dF]R[dW]GK-NH2) | 3.17 | 10.5 |  |
| CCCC[C@H](NC(C)=O)C(=O)N[C@@H](CCC(=O)O)C(=O)N[C@@H](Cc1c[nH]cn1)C(=O)N[C@H](Cc1ccccc1)C(=O)N[C@@H](CCCNC(=N)N)C(=O)N[C@@H](Cc1ccccc1)C(=O)NCC(=O)N[C@@H](CCCCN)C(N)=O [Ac--[Nle^4 --D-Phe^7 --Phe^9]--alpha-MSH4-11 --NH2] (Ac-[Nle]EH[dF]RFGK-NH2) | 0.017 |  |  |
| CCCC[C@H](NC(C)=O)C(=O)N[C@@H](CCC(=O)O)C(=O)N[C@@H](Cc1c[nH]cn1)C(=O)N[C@H](Cc1ccccc1)C(=O)N[C@@H](CCCNC(=N)N)C(=O)N[C@@H](Cc1cn(C=O)c2ccccc12)C(=O)NCC(=O)N[C@@H](CCCCN)C(N)=O [Ac--[Nle^4 --D-Phe^7 --TrpFor^9]--alpha-MSH4-11 --NH2] (Ac-[Nle]EH[dF]RW(For)GK-NH2) | 0.033 |  |  |
| CCCC[C@H](NC(C)=O)C(=O)N[C@@H](CCC(=O)O)C(=O)N[C@@H](Cc1c[nH]cn1)C(=O)N[C@H](Cc1ccccc1)C(=O)N[C@@H](CCCNC(=N)N)C(=O)N[C@@H](Cc1c[nH]c2ccccc12)C(N)=O [Ac--[Nle^4 --D-Phe^7 --alpha-MSH4-9 --NH2] (Ac-[Nle]EH[dF]RW-NH2) |  | 7.14 |  |
| CCCC[C@H](NC(C)=O)C(=O)N[C@@H](CCC(=O)O)C(=O)N[C@@H](Cc1c[nH]cn1)C(=O)N[C@H](Cc1ccccc1)C(=O)N[C@@H](CCCNC(=N)N)C(=O)N[C@@H](Cc1c[nH]c2ccccc12)C(=O)NCC(=O)N[C@@H](CCCCN)C(N)=O [Ac--[Nle^4 --D-Phe^7]--alpha-MSH4-11 --NH2] (Ac-[Nle]EH[dF]RWGK-NH2) | 0.012 | 8.0 |  |
| CCCC[C@H](NC(C)=O)C(=O)N[C@@H](CCC(=O)O)C(=O)N[C@@H](Cc1c[nH]cn1)C(=O)N[C@@H](C(=O)N[C@@H](CCCNC(=N)N)C(=O)N[C@@H](Cc1c[nH]c2ccccc12)C(=O)NCC(=O)N[C@@H](CCCCN)C(N)=O)c1ccccc1 [Ac--[Nle^4 --D-Plg^7]--alpha-MSH4-11 --NH2] (Ac-[Nle]EH[dPhg]RWGK-NH2) | 0.0003 | 0.0005 |  |
| CCCC[C@H](NC(C)=O)C(=O)N[C@@H](CCC(=O)O)C(=O)N[C@@H](Cc1c[nH]cn1)C(=O)N[C@@H](Cc1ccccc1)C(=O)N[C@@H](CCCNC(=N)N)C(=O)N[C@H](Cc1c[nH]c2ccccc12)C(=O)NCC(=O)N[C@@H](CCCCN)C(N)=O [Ac--[Nle^4 --D-Trp^9]--alpha-MSH4-11 --NH2] (Ac-[Nle]EHFR[dW]GK-NH2) | 0.61 | 1.7 |  |
| CCCC[C@H](NC(C)=O)C(=O)N[C@@H](CCC(=O)O)C(=O)N[C@@H](Cc1c[nH]cn1)C(=O)N[C@H](Cc1ccc(O)cc1)C(=O)N[C@@H](CCCNC(=N)N)C(=O)N[C@@H](Cc1c[nH]c2ccccc12)C(=O)NCC(=O)N[C@@H](CCCCN)C(N)=O [Ac--[Nle^4 --D-Tyr^7]--alpha-MSH4-11 --NH2] (Ac-[Nle]EH[dY]RWGK-NH2) |  | 1.0 |  |
| CCCC[C@H](NC(C)=O)C(=O)N[C@@H](CCC(=O)O)C(=O)N[C@@H](Cc1c[nH]cn1)C(=O)N[C@H](Cc1ccc([N+](=O)[O-])cc1)C(=O)N[C@@H](CCCNC(=N)N)C(=O)N[C@@H](Cc1c[nH]c2ccccc12)C(=O)NCC(=O)N[C@@H](CCCCN)C(N)=O [Ac--[Nle^4 --D-pNO2 Phe^7]-- alpha-MSH4-11 --NH2] (Ac-[Nle]EH[dPhe(4-NO2)]RWGK-NH2) | 0.10 | 4.0 |  |
| CCCC[C@H](NC(C)=O)C(=O)N[C@@H](CCC(=O)O)C(=O)N[C@@H](Cc1c[nH]cn1)C(=O)NCC(=O)N[C@@H](CCCNC(=N)N)C(=O)N[C@@H](Cc1c[nH]c2ccccc12)C(=O)NCC(=O)N[C@@H](CCCCN)C(N)=O [Ac--[Nle^4 --Gly^7]--alpha-MSH4-11 --NH2] (Ac-[Nle]EHGRWGK-NH2) | 0.005 | 0.0005 |  |
| CCCC[C@H](NC(C)=O)C(=O)N[C@@H](CCC(=O)O)C(=O)N[C@@H](Cc1c[nH]cn1)C(=O)N[C@@H](Cc1ccc(O)cc1)C(=O)N[C@@H](CCCNC(=N)N)C(=O)N[C@@H](Cc1c[nH]c2ccccc12)C(=O)NCC(=O)N[C@@H](CCCCN)C(N)=O [Ac--[Nle^4 --Tyr^7]--alpha-MSH4-11 --NH2] (Ac-[Nle]EHYRWGK-NH2) |  | 0.0090 |  |
| CSCC[C@H](NC(C)=O)C(=O)N[C@@H](CCC(=O)O)C(=O)N[C@@H](Cc1c[nH]cn1)C(=O)N[C@@H](Cc1ccc([N+](=O)[O-])cc1)C(=O)N[C@@H](CCCNC(=N)N)C(=O)N[C@@H](Cc1c[nH]c2ccccc12)C(=O)NCC(=O)N[C@@H](CCCCN)C(N)=O [Ac--[Phe(pNO2)^7]--alpha-MSH4-11 --NH2] (Ac-MEH[Phe(4-NO2)]RWGK-NH2) | 0.0003 |  |  |
| CC(=O)N[C@@H](Cc1ccc(O)cc1)C(=O)N[C@@H](CCC(=O)O)C(=O)N[C@@H](Cc1c[nH]cn1)C(=O)N[C@H](Cc1ccccc1)C(=O)N[C@@H](CCCNC(=N)N)C(=O)N[C@@H](Cc1c[nH]c2ccccc12)C(=O)NCC(N)=O [Ac--[Tyr^4 --D-Phe^7 --alpha-MSH4-10 --NH2] (Ac-YEH[dF]RWG-NH2) | 0.005 |  |  |
| CC(=O)N[C@@H](Cc1ccc(O)cc1)C(=O)N[C@@H](CCC(=O)O)C(=O)N[C@@H](Cc1c[nH]cn1)C(=O)N[C@H](Cc1ccccc1)C(=O)N[C@@H](CCCNC(=N)N)C(=O)N[C@@H](Cc1c[nH]c2ccccc12)C(=O)NCC(=O)N[C@@H](CCCCN)C(N)=O [Ac--[Tyr^4 --D-Phe^7]--alpha-MSH4-11 --NH2] (Ac-YEH[dF]RWGK-NH2) | 0.01 |  |  |
| Ac--[Phe--Gly^7 ]--alpha-MSH4-11 --NH2 |  |  | 0.10 |
